Test results: ChEMBL document CHEMBL5634076, “Optimization of pyridylpiperazine-based inhibitors of the Escherichia coli AcrAB-TolC efflux pump” (Eur J Med Chem, 2023)
≈ marks a conversion by molar mass, not a printed value.

Tests used:
[1] = molecular target: T1, Multidrug efflux pump subunit AcrB (Escherichia coli (strain K12)) (UniProt P31224); test: Inhibition of AcrB in Escherichia coli BW25113 assessed as potentiation of pyridomycin-induced antibacterial activity incubated for 5 hrs by resazurin reduction assay
T1 sequence (whole entry): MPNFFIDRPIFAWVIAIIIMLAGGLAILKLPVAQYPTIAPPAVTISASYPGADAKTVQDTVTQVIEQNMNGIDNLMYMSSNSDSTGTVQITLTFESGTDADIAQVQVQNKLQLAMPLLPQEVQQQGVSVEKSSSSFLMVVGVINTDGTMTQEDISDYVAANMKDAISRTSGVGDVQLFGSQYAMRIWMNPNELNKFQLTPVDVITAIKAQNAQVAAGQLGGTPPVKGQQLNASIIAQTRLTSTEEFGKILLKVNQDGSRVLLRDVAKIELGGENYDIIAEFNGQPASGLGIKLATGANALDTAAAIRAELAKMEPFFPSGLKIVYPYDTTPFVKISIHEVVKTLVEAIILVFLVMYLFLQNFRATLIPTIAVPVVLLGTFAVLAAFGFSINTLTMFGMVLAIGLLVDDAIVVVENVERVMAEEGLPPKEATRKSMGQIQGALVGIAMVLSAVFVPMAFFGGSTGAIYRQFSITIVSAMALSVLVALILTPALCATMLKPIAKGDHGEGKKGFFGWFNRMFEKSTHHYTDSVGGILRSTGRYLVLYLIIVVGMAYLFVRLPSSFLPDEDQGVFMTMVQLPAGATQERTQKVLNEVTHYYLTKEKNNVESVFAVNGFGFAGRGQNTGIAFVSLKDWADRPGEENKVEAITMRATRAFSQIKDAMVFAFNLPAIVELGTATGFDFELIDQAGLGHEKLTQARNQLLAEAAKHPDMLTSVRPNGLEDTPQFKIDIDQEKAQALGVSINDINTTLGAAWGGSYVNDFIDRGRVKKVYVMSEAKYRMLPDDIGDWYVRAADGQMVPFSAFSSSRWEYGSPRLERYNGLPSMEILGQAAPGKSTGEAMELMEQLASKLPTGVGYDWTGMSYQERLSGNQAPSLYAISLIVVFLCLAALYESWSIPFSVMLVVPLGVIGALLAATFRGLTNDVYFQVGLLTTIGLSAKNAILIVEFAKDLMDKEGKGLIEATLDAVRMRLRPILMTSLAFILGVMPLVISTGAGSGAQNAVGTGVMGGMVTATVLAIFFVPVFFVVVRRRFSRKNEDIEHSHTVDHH

Escherichia coli [2] = test: Antibacterial activity against Escherichia coli BW25113 assessed as reduction in bacterial growth incubated for 5 hrs by resazurin reduction assay; format: functional
Escherichia coli [3] = test: Antibacterial activity against Escherichia coli BW25113 assessed as reduction in bacterial growth incubated for 20 hrs by resazurin microtitre assay; format: functional
[4] = molecular target: T1, Multidrug efflux pump subunit AcrB (Escherichia coli (strain K12)); test: Inhibition of AcrB in Escherichia coli BW25113 assessed as potentiation of pyridomycin-induced antibacterial activity incubated for 20 hrs by resazurin microtitre assay
[5] = Solubility of compound in DMSO at > 125 uM; format: physicochemical
Escherichia coli [6] = test: Antibacterial activity against Escherichia coli BW25113 harboring acrB deletion mutant assessed as reduction in bacterial growth incubated for 20 hrs by resazurin microtitre assay; format: functional
Escherichia coli [7] = test: Potentiation of novobiocin induced antibacterial activity in Escherichia coli BW25113 assessed as novobiocin MIC at 100 uM incubated for 20 hrs by resazurin microtitre assay (reference value: 80 ug/ml); format: functional
Escherichia coli [8] = test: Potentiation of fusidic acid induced antibacterial activity in Escherichia coli BW25113 assessed as fold change in fusidic acid MIC at 100 uM incubated for 20 hrs by resazurin microtitre assay; format: functional
Escherichia coli [9] = test: Potentiation of oxacillin induced antibacterial activity in Escherichia coli BW25113 assessed as fold change in oxacillin MIC at 100 uM incubated for 20 hrs by resazurin microtitre assay; format: functional
Escherichia coli [10] = test: Inhibition of AcrB Ser450Pro mutant in Escherichia coli BW25113 assessed as potentiation of pyridomycin-induced antibacterial activity incubated for 20 hrs by resazurin microtitre assay
[11] = molecular target: T1, Multidrug efflux pump subunit AcrB (Escherichia coli (strain K12)); test: Potency index, ratio of BDM88832 EC90 to test compound EC90 for inhibition of AcrAB-TolC in Escherichia coli BW25113
Escherichia coli [12] = test: Selectivity ratio of EC90 for inhibition of AcrB Glu947Gln mutant in Escherichia coli BW25113 to inhibition of AcrB in Escherichia coli BW25113 incubated for 20 hrs by resazurin microtitre assay
Escherichia coli [13] = test: Potentiation of piperacillin induced antibacterial activity in Escherichia coli BW25113 assessed as fold change in piperacillin MIC at 100 uM incubated for 20 hrs by resazurin microtitre assay; format: functional
Escherichia coli [14] = test: Inhibition of AcrB Asp951Asn mutant in Escherichia coli BW25113 assessed as potentiation of pyridomycin-induced antibacterial activity incubated for 20 hrs by resazurin microtitre assay
Escherichia coli [15] = test: Potentiation of erythromycin induced antibacterial activity in Escherichia coli BW25113 assessed as fold change in erythromycin MIC at 100 uM incubated for 20 hrs by resazurin microtitre assay; format: functional
Escherichia coli [16] = test: Inhibition of AcrB Glu947Gln mutant in Escherichia coli BW25113 assessed as potentiation of pyridomycin-induced antibacterial activity incubated for 20 hrs by resazurin microtitre assay
[17] = Solubility of compound in PBS at pH 7.4 incubated for 24 hrs by LC-MS/MS analysis; format: physicochemical
Escherichia coli [18] = test: Potentiation of linezolid induced antibacterial activity in Escherichia coli BW25113 assessed as linezolid MIC at 100 uM incubated for 20 hrs by resazurin microtitre assay (Rvb > 128 ug/ml); format: functional
Escherichia coli [19] = test: Potentiation of erythromycin induced antibacterial activity in Escherichia coli BW25113 assessed as erythromycin MIC at 100 uM incubated for 20 hrs by resazurin microtitre assay (reference value: 128 ug/ml); format: functional
Escherichia coli [20] = test: Potentiation of chloramphenicol induced antibacterial activity in Escherichia coli BW25113 assessed as fold change in chloramphenicol MIC at 100 uM incubated for 20 hrs by resazurin microtitre assay; format: functional
Escherichia coli [21] = test: Potentiation of ciprofloxacin induced antibacterial activity in Escherichia coli BW25113 assessed as ciprofloxacin MIC at 100 uM incubated for 20 hrs by resazurin microtitre assay (reference value: 0.01 ug/ml); format: functional
Escherichia coli [22] = test: Potentiation of chloramphenicol induced antibacterial activity in Escherichia coli BW25113 assessed as chloramphenicol MIC at 100 uM incubated for 20 hrs by resazurin microtitre assay (reference value: 8 ug/ml); format: functional
Escherichia coli [23] = test: Potentiation of oxacillin induced antibacterial activity in Escherichia coli BW25113 assessed as oxacillin MIC at 100 uM incubated for 20 hrs by resazurin microtitre assay (Rvb > 128 ug/ml); format: functional
Escherichia coli [24] = test: Potentiation of fusidic acid induced antibacterial activity in Escherichia coli BW25113 assessed as fusidic acid MIC at 100 uM incubated for 20 hrs by resazurin microtitre assay (Rvb > 128 ug/ml); format: functional
Escherichia coli [25] = test: Potentiation of ciprofloxacin induced antibacterial activity in Escherichia coli BW25113 assessed as fold change in ciprofloxacin MIC at 100 uM incubated for 20 hrs by resazurin microtitre assay; format: functional
Escherichia coli [26] = test: Potentiation of novobiocin induced antibacterial activity in Escherichia coli BW25113 assessed as fold change in novobiocin MIC at 100 uM incubated for 20 hrs by resazurin microtitre assay; format: functional
Escherichia coli [27] = test: Inhibition of AcrB Ala446Pro mutant in Escherichia coli BW25113 assessed as potentiation of pyridomycin-induced antibacterial activity incubated for 20 hrs by resazurin microtitre assay
Escherichia coli [28] = test: Potentiation of piperacillin induced antibacterial activity in Escherichia coli BW25113 assessed as piperacillin MIC at 100 uM incubated for 20 hrs by resazurin microtitre assay (reference value: 4 ug/ml); format: functional
Escherichia coli [29] = test: Potentiation of linezolid induced antibacterial activity in Escherichia coli BW25113 assessed as fold change in linezolid MIC at 100 uM incubated for 20 hrs by resazurin microtitre assay; format: functional
Escherichia coli [30] = test: Selectivity ratio of EC90 for inhibition of AcrB Asp951Asn mutant in Escherichia coli BW25113 to inhibition of AcrB in Escherichia coli BW25113 incubated for 20 hrs by resazurin microtitre assay
[31] = Stability in CD-1 mouse liver microsomes assessed as half life at 1 uM measured up to 40 mins by LC-MS/MS analysis; format: ADME, Microsome
[32] = Stability in mouse plasma assessed as half life at 10 uM measured up to 360 mins by LC-MS/MS analysis; format: ADME, cell-free
[33] = Stability in CD-1 mouse liver microsomes assessed as intrinsic clearance at 1 uM measured up to 40 mins by LC-MS/MS analysis; format: ADME, Microsome; settings: read-out: CLH

Structure (SMILES)	MIC (Escherichia coli [3])	EC90 [4] [µM]	MIC95 (Escherichia coli [7]) [µg/mL]	fold change (FC) (Escherichia coli [8])	fold change (FC) (Escherichia coli [9])	EC90 (Escherichia coli [10]) [µM]	Ratio (Escherichia coli [12])	fold change (FC) (Escherichia coli [13])	EC90 (Escherichia coli [14]) [µM]	fold change (FC) (Escherichia coli [15])	EC90 (Escherichia coli [16]) [µM]	solubility at 24 h [17] [µM]	MIC95 (Escherichia coli [18]) [µg/mL]	MIC95 (Escherichia coli [19]) [µg/mL]	fold change (FC) (Escherichia coli [20])	MIC95 (Escherichia coli [21]) [µg/mL]	MIC95 (Escherichia coli [22]) [µg/mL]	MIC95 (Escherichia coli [23]) [µg/mL]	MIC95 (Escherichia coli [24]) [µg/mL]	fold change (FC) (Escherichia coli [25])	also measured
FC(F)(F)c1cnc(N2CCNCC2)c(Cl)c1	> 250 µM																				EC90 [1]: 62 µM; MIC90 (Escherichia coli [2]): > 500 µM
Cc1noc(-c2cnc(N3CCNCC3)c(Cl)c2)n1.Cl	> 125 µM	> 125																			solubility [5]: Soluble
CC/C(C)=C1\OC(=O)[C@H](C)[C@H](O)[C@H](Cc2cccnc2)NC(=O)[C@@H](NC(=O)c2ncccc2O)[C@@H](C)OC1=O [PYRIDOMYCIN]	12.5 µg/mL																				MIC (Escherichia coli [6]): 0.78 µg/mL (≈ 1.44 µM)
Cl.Cl.NCc1cccc(OC(=O)c2cnc(N3CCNCC3)c(Cl)c2)c1	> 250 µM	0.6	1.2	>26	>26	> 62	> 103	>8	62	32	> 62	180	8	4	4	< 0.005	2	5	5	>2	Ratio [11]: 20; fold change (FC) (Escherichia coli [26]): 64; EC90 (Escherichia coli [27]): > 62 µM; MIC95 (Escherichia coli [28]): < 0.5 µg/mL; fold change (FC) (Escherichia coli [29]): >16; Ratio (Escherichia coli [30]): 103
Cl.Cl.NCCc1nc(-c2cnc(N3CCNCC3)c(Cl)c2)no1	> 250 µM	8	10	4	3	> 250	> 31	>8	> 250	8	> 250	> 200	16	16	4	< 0.005	2	40	32	>2	half-life at 1 µM [31]: > 0.667 h; half-life at 10 µM [32]: > 6 h; fold change (FC) (Escherichia coli [26]): 8; EC90 (Escherichia coli [27]): > 250 µM; MIC95 (Escherichia coli [28]): < 0.5 µg/mL; fold change (FC) (Escherichia coli [29]): 8; microsomal CLint at 1 µM [33]: < 2 µL/min/mg; Ratio (Escherichia coli [30]): > 31
